Data reported in article PMC6557688 (FEBS letters, 2019).

Target: recombinant Nudt7 (Mus musculus, UniProt Q99P30)
Assay: CoA diphosphohydrolase assay, protein curves
Format: biochemical
Details: MgCl2 or MnCl2

Sequence of recombinant Nudt7 (Q99P30 whole entry): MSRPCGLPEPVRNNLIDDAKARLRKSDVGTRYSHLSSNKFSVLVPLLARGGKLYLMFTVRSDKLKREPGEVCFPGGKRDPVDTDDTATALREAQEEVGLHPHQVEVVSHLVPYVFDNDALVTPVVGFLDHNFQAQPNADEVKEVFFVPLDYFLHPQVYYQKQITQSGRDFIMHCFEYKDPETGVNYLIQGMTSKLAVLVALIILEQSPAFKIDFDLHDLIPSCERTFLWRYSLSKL

CC(C)(COP(=O)(O)OP(=O)(O)OC[C@H]1O[C@@H](n2cnc3c(N)ncnc32)[C@H](O)[C@@H]1OP(=O)(O)O)[C@@H](O)C(=O)NCCC(=O)NCCS [Free CoA]
CoA diphosphohydrolase assay, protein curves: the specific activity of Nudt8 against free CoA was comparable to that of Nudt7
